Source: patent publication US4160097A, “1-(2-Phenylureylene)imidazoles” (Westwind Pharmaceuticals, Inc., priority 1977, dated 1979)
≈ marks a conversion by molar mass, not a printed value.

Key:
Candida tropicalis = experiment: Antifungal activity, agar dilution method; format: cell-based; conditions: C. tropicalis, read-out: Parts Per Million Inhibitions of C. tropicalis
Protocol: (§1) various compounds of this invention display antifungal and anti-yeast activity.
(§2) In Table IX below are listed the antifungal activity of a number of compounds encompassed in the present invention. These were determined by the agar dilution method as described in Chapters 2 and 3 of Methods in Microbiology, Vol. 7B, edited by J. R. Norris and D. W. Ribbons, Academic Press, New York, 1972.

Trichophyton ajelloi = experiment: Antifungal activity, agar dilution method; format: cell-based; conditions: Arthroderma uncinatum, T. ajelloi, read-out: Parts Per Million Inhibitions of T. ajelloi
Protocol: as §1, §2

[1] = system: Trichophyton mentagrophytes; experiment: Antifungal activity, agar dilution method; format: cell-based, Trichophyton mentagrophytes (ATCC No. 8757 and 9129); conditions: T. mentagrophytes, read-out: Parts Per Million Inhibitions of T. mentagrophytes
Protocol: as §1, §2

Candida albicans = experiment: Antifungal activity, agar dilution method; format: cell-based, Candida albicans (ATCC No. 10231); conditions: C. albicans, read-out: Parts Per Million Inhibitions of C. albicans
Protocol: as §1, §2

[2] = system: carrageenan rat paw edema; experiment: Rat Paw Edema Assay, Oral Dosing; format: in vivo; conditions: 4 h, 100 mg/kg oral, four hours after drug, read-out: % Difference from Control
Protocol: (§3) The anti-inflammatory activity of representative compounds of this invention was determined by the rat paw edema assay both by local administration (Table XI below) and by oral dosing (Table XII below). For the oral dosing, the procedure of C. A. Winter, E. A. Risley and G. W. Nuss, Proc. Soc. Exp. Biol. Med. III, 544 (1962) was employed with measurement taken four hours after the drug was administered. The local administration tests were carried out similarly except the irritant (carrageenan) and the test compound were injected simultaneously at time zero.
(§4) Tables XI and XII report the anti-inflammatory activity of the compounds tested as % difference in the edema or swelling as compared with the control. These Tables also give the response in many instances of more than one dose level of the same drug.

[3] = system: carrageenan rat paw edema; experiment: Rat Paw Edema Assay, Local Administration; format: in vivo; conditions: read-out: % Difference from Control
Protocol: as §3, §4

immune response = experiment: immunosuppressant activity (general statement); format: in vivo, mice; conditions: statement in words
Trichophyton rubrum = experiment: Antifungal activity, agar dilution method; format: cell-based, Trichophyton rubrum (ATCC No. 10218 and 14001); conditions: T. rubrum, read-out: Parts Per Million Inhibitions of T. rubrum
Protocol: as §1, §2

[4] = system: humeral or antibody response; experiment: hemolysin test in mice; format: in vivo; conditions: Mus musculus, sc, dose reducing antibody activity by 50% vs control, read-out: HL(ED50)
[5] = system: cell-mediated immune response to the antigen, Mycobacterium tuberculosis H37Ra; experiment: delayed hypersensitivity test; format: in vivo, mouse; conditions: Mus musculus, sc; mice; dose reducing edema of cell-mediated immune response by 60% vs control; read-out: D.H.S. (ED60)
Protocol: The immunosuppressant activities of the compounds of this invention were determined via the hemolysin test in mice and by the delayed hypersensitivity test. The hemolysin test used is that described in Methods in Immunology, edited by D. H. Campbell et al, W. A. Benjamin, New York 1963 pages 172-175, and measures humeral or antibody response. The delayed hypersensitivity test measures the effect of a test compound on the ability of a subject mouse to mount a cell-mediated immune response to the antigen, Mycobacterium tuberculosis H37Ra. The mouse is sensitized to the antigen by subcutaneous administration in the base of the tail. The development of the delayed hypersensitivity response may be measured at any time beginning six days after sensitization but is usually done on the ninth day as follows: The right hind paw is injected with purified protein derivative (tuberculin) while the left hind paw (control) receives physiological saline. Both paw volumes are measured after twenty-four hours and significant increase in the volume of the right hand paw is taken as a measure of an effective delayed hypersensitivity response. All compounds were administered by the subcutaneous route.
The D.H.S. (ED60) mg./kg. s.c. value appearing in column 3 is an expression of the effectiveness of the drug in reducing the edema that accompanies the cell-mediated immune response. It is a measure of the number of milligrams per kilogram of body weight of the drug administered subcutaneously which is required to reduce the edema of the cell-mediated immune response by 60% when compared to the control.

Aspergillus niger = experiment: Antifungal activity, agar dilution method; format: cell-based, Aspergillus niger (ATCC No. 16404); conditions: A. niger, read-out: Parts Per Million Inhibitions of A. niger
Protocol: as §1, §2

Compound | MIC (Candida tropicalis) [µg/mL] | MIC (Trichophyton ajelloi) [µg/mL] | MIC [1] [µg/mL] | MIC (Candida albicans) [µg/mL] | change in vivo at 100 mg/kg [2] [%] | change in vivo at 0.001 mg ([3]; 1 μg, injected directly into paw) [%] | change in vivo at 0.01 mg ([3]; 10 μg, injected directly into paw) [%] | change in vivo at 0.1 mg ([3]; 100 μg, injected directly into paw) [%] | immunosuppressant activity (immune response) | MIC (Trichophyton rubrum) [µg/mL] | ED50 [4] [mg/kg] | ED60 [5] [mg/kg] | MIC (Aspergillus niger) [µg/mL] | change in vivo at 100 mg/kg ([3]; 100 mg/kg, local administration) [%]
O=C(Nc1ccccc1-n1ccnc1)c1ccc(-c2ccccc2)cc1 [Compound 40] | 100 (≈ 295 µM) | 100 (≈ 295 µM) | 100 (≈ 295 µM) | 100 (≈ 295 µM) | -43 |  |  |  |  |  |  |  |  | 
c1ccc2c(c1)ncc1nccn12 [Compound 109, imidazo[1,2-a]quinoxaline, reference compound] |  |  | 128 (≈ 757 µM) |  | -17 | -30.8 | -3.9 | 31.6 | lacks immunosuppressant activity | 32 (≈ 189 µM) | > 50 | > 50 |  | 
Cc1nc2ccccc2n2ccnc12 [Compound 110] |  |  | 128 (≈ 699 µM) |  | -43 |  |  |  |  | 64 (≈ 349 µM) |  | 50 | 128 (≈ 699 µM) | -74
CCCCc1nc2ccccc2n2ccnc12 [Compound 113] | 100 (≈ 444 µM) |  | 100 (≈ 444 µM) | 100 (≈ 444 µM) |  |  |  |  |  |  |  |  |  | 
c1ccc(Cc2nc3ccccc3n3ccnc23)cc1 [Compound 124] | 100 (≈ 386 µM) | 100 (≈ 386 µM) | 100 (≈ 386 µM) | 100 (≈ 386 µM) |  |  |  |  |  | 8 (≈ 30.9 µM) |  |  |  | 
C1=CCC(c2nc3ccccc3n3ccnc23)CC1 (stereo not shown) [Compound 130] | 100 (≈ 401 µM) | 100 (≈ 401 µM) | 100 (≈ 401 µM) | 100 (≈ 401 µM) |  |  |  |  |  |  |  |  |  | 
c1ccc(-c2nc3ccccc3n3ccnc23)cc1 [Compound 131, 4-phenylimidazo[1,2-a]quinoxaline, reference compound] |  |  | 16 (≈ 65.2 µM) |  | -52 |  |  |  | only minor activity | 2 (≈ 8.15 µM) | 18 | 81 |  | 
Cc1cccc(-c2nc3ccccc3n3ccnc23)c1 [Compound 133] | 100 (≈ 386 µM) | 8 (≈ 30.9 µM) | 8 (≈ 30.9 µM) | 100 (≈ 386 µM) | -17 |  |  |  |  | 8 (≈ 30.9 µM) | 0.75 | 32 |  | 
Nc1ccc(-c2nc3ccccc3n3ccnc23)cc1 [Compound 153] | 100 (≈ 384 µM) |  |  |  |  |  |  |  |  |  | 1.2 | 5.7 |  | 
